Molecules are shown by their SMILES.

The target of this experiment is T1, active p38 alpha enzyme (Upstate Biotechnology) (Homo sapiens, UniProt Q16539).
T1 construct: purchased Upstate Biotechnology
T1 sequence (Q16539 whole entry): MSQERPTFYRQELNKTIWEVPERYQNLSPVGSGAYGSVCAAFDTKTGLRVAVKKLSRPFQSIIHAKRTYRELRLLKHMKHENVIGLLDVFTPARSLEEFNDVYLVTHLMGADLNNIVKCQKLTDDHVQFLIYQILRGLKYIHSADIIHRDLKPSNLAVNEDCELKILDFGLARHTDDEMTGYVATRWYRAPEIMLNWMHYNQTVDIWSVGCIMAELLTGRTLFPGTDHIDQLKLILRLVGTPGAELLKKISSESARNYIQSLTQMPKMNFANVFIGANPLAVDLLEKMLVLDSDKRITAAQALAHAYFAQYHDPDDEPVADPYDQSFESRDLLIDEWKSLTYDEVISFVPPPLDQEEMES
Kind of experiment: p38α biochemical assay (ATP turnover, luminescent detection, Cambrex PKlight). Particulars: p38α biochemical assay, Table 1 Biological Activity. As to the method:
The p38α biochemical assay employed is based on measurement of total ATP turnover following enzyme incubation with substrate in the presence of ATP with the use of a luminescent detection reagent (Cambrex PKlight). The assays were performed in 1536-well white opaque plates.
The final volume was 7.5005 μL as prepared prepared from the addition of 5 ul of kinase reaction (p38 alpah+MapkapK2+ATP) with 0.0005 μL compound dissolved in DMSO, and 2.5 ul of the detection reagent. Assay buffer contains the following reagents to give final concentration in the assay: 200 mM Tris, 100 mM MgCl2, 1.5 mM EGTA, 4 mM CaCl2, 20 mM MOPS, 1 mM EDTA, 1% glycerol, 0.1% B-Mecaptoethanol, and 1 mg/ml BSA. Test compounds are pinned using proprietary pintool technology (Kalypsys, Inc) and delivered as […] amounts into the 5 ul mixture of active p38 alpha enzyme (Upstate Biotechnology) and MapkapK2 (Upstate Biotechnology) whole protein as a substrate for phosphorylation in the presence of 1.4 uM final concentration ATP. Reactions are incubated at 30C for 2 hours and detection reagent is added in 2.5 ul/well amounts. Assay is read using a Perkin Elmer Viewlux.
Molecule `Cc1nc(-c2ccc(F)cc2)c(-c2nc(C(N)=O)cs2)o1` [Example 39, 2-|4-(4-Fluoro-phenyl)-2-methyl-oxazol-5-yl|-thiazole-4-carboxylic acid amide] came in with an IC50 greater than 1000 nM. The result for `CC(C)NC(=O)c1csc(-c2oc(CN(C)C)nc2-c2ccc(F)cc2)n1` [Example 42, 2-|2-Dimethylaminomethyl-4-(4-fluoro-phenyl)-oxazol-5-yl|-thiazole-4-carboxylic acid isopropylamide] reads no more than 1000 nM; that for `CC(C)NC(=O)c1csc(-c2oc(CNC(=O)OC(C)(C)C)nc2-c2ccc(F)cc2)n1` [Example 43, |4-(4-Fluoro-phenyl)-5-(4-isopropylcarbamoyl-thiazol-2-yl)-oxazol-2-ylmethyl|-carbamic acid tert-butyl ester], greater than 1000 nM; that for `CNC(=O)c1csc(-c2sc(C)nc2-c2ccc(F)cc2)n1` [Example 47, 4′-(4-Fluoro-phenyl)-2′-methyl-|2,5′|bithiazolyl-4-carboxylic acid methylamide], no more than 1000 nM. With `CCNC(=O)c1csc(-c2sc(C)nc2-c2ccc(F)cc2)n1` [Example 48, 4′-(4-Fluoro-phenyl)-2′-methyl-|2,5′|bithiazolyl-4-carboxylic acid ethylamide], the IC50 was no more than 1000 nM. The result for `Cc1nc(-c2ccc(F)cc2)c(-c2nc(C(=O)NCCO)cs2)s1` [Example 49, 4′-(4-Fluoro-phenyl)-2′-methyl-|2,5′|bithiazolyl-4-carboxylic acid (2-hydroxy-ethyl)-amide] reads no more than 1000 nM; that for `Cc1nc(-c2ccc(F)cc2)c(-c2nc(C(=O)NC3CCC3)cs2)s1` [Example 50, 4′-(4-Fluoro-phenyl)-2′-methyl-|2,5′|bithiazolyl-4-carboxylic acid cyclobutylamide], no more than 1000 nM; that for `Cc1nc(-c2ccc(F)cc2)c(-c2nc(C(=O)NCC3CC3)cs2)s1` [Example 51, 4′-(4-Fluoro-phenyl)-2′-methyl-|2,5′|bithiazolyl-4-carboxylic acid cyclopropylmethyl-amide], no more than 1000 nM.

`Cc1nc(-c2ccc(F)cc2)c(-c2nc(C(=O)NCCCO)cs2)s1` [Example 52, 4′-(4-Fluoro-phenyl)-2′-methyl-|2,5′|bithiazolyl-4-carboxylic acid (3-hydroxy-propyl)-amide] gave an IC50 of no more than 1000 nM.

In turn, `COCCNC(=O)c1csc(-c2sc(C)nc2-c2ccc(F)cc2)n1` [Example 53, 4′-(4-Fluoro-phenyl)-2′-methyl-|2,5′|bithiazolyl-4-carboxylic acid (2-methoxy-ethyl)-amide] came in with an IC50 of no more than 1000 nM. `CCC(CO)NC(=O)c1csc(-c2sc(C)nc2-c2ccc(F)cc2)n1` (stereo not drawn) [Example 54, 4′-(4-Fluoro-phenyl)-2′-methyl-|2,5′|bithiazolyl-4-carboxylic acid (1-hydroxymethyl-propyl)-amide]: the IC50 is no more than 1000 nM.

In the case of `Cc1nc(-c2ccc(F)cc2)c(-c2nc(C(=O)NCc3cccnc3)cs2)s1` [Example 55, 4′-(4-Fluoro-phenyl)-2′-methyl-|2,5′|bithiazolyl-4-carboxylic acid (pyridin-3-ylmethyl)-amide], the IC50 is no more than 1000 nM. Under `Cc1nc(-c2ccc(F)cc2)c(-c2nc(C(=O)NCc3ccccn3)cs2)s1` [Example 56, 4′-(4-Fluoro-phenyl)-2′-methyl-|2,5′|bithiazolyl-4-carboxylic acid (pyridin-2-ylmethyl)-amide] stands no more than 1000 nM.

`Cc1nc(-c2ccc(F)cc2)c(-c2nc(C(=O)NCc3ccncc3)cs2)s1` [Example 57, 4′-(4-Fluoro-phenyl)-2′-methyl-|2,5′|bithiazolyl-4-carboxylic acid (pyridin-4-ylmethyl)-amide] gave an IC50 of no more than 1000 nM.

Molecule `Cc1nc(-c2ccc(F)cc2)c(-c2nc(C(=O)NCCCN3CCOCC3)cs2)s1` [Example 58, 4′-(4-Fluoro-phenyl)-2′-methyl-|2,5′|bithiazolyl-4-carboxylic acid (3-morpholin-4-yl-propyl)-amide] returned an IC50 greater than 1000 nM. On to `Cc1nc(-c2ccc(F)cc2)c(-c2nc(C(=O)NCc3ccc4c(c3)OCO4)cs2)s1` [Example 59, 4′-(4-Fluoro-phenyl)-2′-methyl-|2,5′|bithiazolyl-4-carboxylic acid (benzo|1,3|dioxol-5-ylmethyl)-amide], for which the IC50 is no more than 1000 nM. Under `COc1ccc(CNC(=O)c2csc(-c3sc(C)nc3-c3ccc(F)cc3)n2)cc1OC` [Example 60, 4′-(4-Fluoro-phenyl)-2′-methyl-|2,5′|bithiazolyl-4-carboxylic acid 3,4-dimethoxy-benzylamide] stands greater than 1000 nM; under `CC(C)NC(=O)c1csc(-c2c(-c3ccc(F)cc3)n[nH]c2C2CCNCC2)n1` [Example 61, 2-|3-(4-Fluoro-phenyl)-5-piperidin-4-yl-1H-pyrazol-4-yl|-thiazole-4-carboxylic acid isopropylamide], no more than 1000 nM. The result for `CCNC(=O)c1csc(-c2c(-c3ccc(F)cc3)n[nH]c2C2CCNCC2)n1` [Example 63, 2-|3-(4-Fluoro-phenyl)-5-piperidin-4-yl-1H-pyrazol-4-yl|-thiazole-4-carboxylic acid ethylamide] reads no more than 1000 nM; that for `C#CCNC(=O)c1csc(-c2c(-c3ccc(F)cc3)n[nH]c2C2CCNCC2)n1` [Example 65, 2-|3-(4-Fluoro-phenyl)-5-piperidin-4-yl-1H-pyrazol-4-yl|-thiazole-4-carboxylic acid prop-2-ynylamide], no more than 1000 nM. Under `O=C(NCc1cccnc1)c1csc(-c2c(-c3ccc(F)cc3)n[nH]c2C2CCNCC2)n1` [Example 67, 2-|3-(4-Fluoro-phenyl)-5-piperidin-4-yl-1H-pyrazol-4-yl|-thiazole-4-carboxylic acid (pyridin-3-ylmethyl)-amide] stands no more than 1000 nM; under `O=C(NCC1CC1)c1csc(-c2c(-c3ccc(F)cc3)n[nH]c2C2CCNCC2)n1` [Example 69, 2-|3-(4-Fluoro-phenyl)-5-piperidin-4-yl-1H-pyrazol-4-yl|-thiazole-4-carboxylic acid cyclopropylmethyl-amide], no more than 1000 nM. Regarding `O=C(O)c1csc(-c2c(-c3ccc(F)cc3)n[nH]c2C2CCNCC2)n1` [Example 70, 2-(3-(4-fluorophenyl)-5-(piperidin-4-yl)-1H-pyrazol-4-yl)thiazole-4-carboxylic acid], the IC50 was greater than 1000 nM. The molecule `CCNC(=O)c1csc(-c2c(-c3ccc(F)cc3)n[nH]c2C)n1` [Example 72, 2-|3-(4-Fluoro-phenyl)-5-methyl-1H-pyrazol-4-yl|-thiazole-4-carboxylic acid ethylamide] registered an IC50 of no more than 1000 nM. The result for `Cc1[nH]nc(-c2ccc(F)cc2)c1-c1nc(C(=O)NCc2ccc3c(c2)OCO3)cs1` [Example 74, 2-|3-(4-Fluoro-phenyl)-5-methyl-1H-pyrazol-4-yl|-thiazole-4-carboxylic acid (benzo|1,3|dioxol-5-yl methyl)-amide] reads no more than 1000 nM; that for `Cc1[nH]nc(-c2ccc(F)cc2)c1-c1nc(C(=O)NCc2ccccn2)cs1` [Example 75, 2-|3-(4-Fluoro-phenyl)-5-methyl-1H-pyrazol-4-yl|-thiazole-4-carboxylic acid (pyridin-2-ylmethyl)-amide], no more than 1000 nM.

Regarding `Cc1[nH]nc(-c2ccc(F)cc2)c1-c1nc(C(=O)NCc2cccnc2)cs1` [Example 76, 2-|3-(4-Fluoro-phenyl)-5-methyl-1H-pyrazol-4-yl|-thiazole-4-carboxylic acid (pyridin-3-ylmethyl)-amide], the half-maximal inhibitory concentration (IC50) was no more than 1000 nM.

`Cc1[nH]nc(-c2ccc(F)cc2)c1-c1nc(C(=O)NCc2ccncc2)cs1` [Example 77, 2-|3-(4-Fluoro-phenyl)-5-methyl-1H-pyrazol-4-yl|-thiazole-4-carboxylic acid (pyridin-4-ylmethyl)-amide] returned an IC50 of no more than 1000 nM.

Take `CC(C)NC(=O)c1csc(-c2[nH]c(CN3CCOCC3)nc2-c2ccc(F)cc2)n1` [Example 80, 2-|5-(4-Fluoro-phenyl)-2-morpholin-4-ylmethyl-3H-imidazol-4-yl|-thiazole-4-carboxylic acid isopropylamide]: the IC50 is no more than 1000 nM. The result for `CC(C)NC(=O)c1csc(-c2[nH]c(CN(C)C)nc2-c2ccc(F)cc2)n1` [Example 81, 2-|2-Dimethylaminomethyl-5-(4-fluoro-phenyl)-3H-imidazol-4-yl|-thiazole-4-carboxylic acid isopropylamide] reads no more than 1000 nM.

For `C#CCNC(=O)c1csc(-c2[nH]c(CN3CCNCC3)nc2-c2ccc(F)cc2)n1` [Example 82, 2-|5-(4-Fluoro-phenyl)-2-piperazin-1-ylmethyl-3H-imidazol-4-yl|-thiazole-4-carboxylic acid prop-2-ynylamide], the IC50 was no more than 1000 nM. `CC(C)NC(=O)c1csc(-c2[nH]c(CN3CCNCC3)nc2-c2ccc(F)cc2)n1` [Example 83, 2-|5-(4-Fluoro-phenyl)-2-piperazin-1-ylmethyl-3H-imidazol-4-yl|-thiazole-4-carboxylic acid isopropylamide] gave an IC50 of no more than 1000 nM. Under `CC(C)NC(=O)c1csc(-c2[nH]c(CO)nc2-c2ccc(F)cc2)n1` [Example 84, 2-|5-(4-Fluoro-phenyl)-2-hydroxymethyl-3H-imidazol-4-yl|-thiazole-4-carboxylic acid isopropylamide] stands no more than 1000 nM.

The IC50 is the concentration that gives 50% inhibition. A high value points to lower potency.
